Data reported in patent US20070287676A1, “Diagnosis and treatment of endometriosis” (priority 2006, published 2007).
Entries after “also recorded” stand apart in the source; their conditions may differ.

Assays:
[1] = test system: YHES cells (immortalized human endometrial stromal cell line); test: MTT cell proliferation assay in YHES cells; format: cell-based; conditions: 48 hr
Method: An immortalized human endometrial stromal cell line was maintained following Krikun et al. (Krikun et al. 2004 Endocrinology 145:2291-6). Cells were maintained in phenol red-free DMEM/F12 (Gibco, CA) medium supplemented with 10% charcoal-dextran stripped FBS (Biomeda, CA), 1 μl/ml sodium pyruvate (Gibco, CA) and 1× Pen/Strep/Fungizone (Gibco, CA), at 37° C. with 5% C02 in a humidified incubator.
(§1) The YHES cells were harvested by trypsinization and seeded in 96-well plate at ˜1×10^4 cells/well. The cells were allowed to attach to the plate for overnight at 37° C. with 5% C02 in a humidified incubator. Then they were pretreated with physiological concentration of E2 (10^-9M) and P (10^-7M) for 24 hr to maintain hormonal responsiveness. […] Cell growth was valuated by the MTT assay (ATCC, Manassas, Va.). MTT assay was performing according to the manufacturer's instructions, and in triplicate to generate mean values. Cell numbers in the untreated control were arbitrarily assigned as 1. The relative cell growth was expressed as fold increase/decrease relative to the control. Data were presented as mean values from three independently repeated experiments.

[2] = test system: YHES cells pretreated with H2O2; test: H2O2-induced cell proliferation, MTT assay; format: cell-based, human; conditions: 100 μM, H2O2 1 μM, 48 hours, vs H2O2 only
Method: MTT assay was performed after 48 hours of treatment.
as §1
The addition of H202 was meant to mimic the oxidative stress as reported in endometriosis. […] RU486 suppressed cell proliferation by 75% at the concentration of 100 μM.

YHES cells = test: Long-term culture and morphology after treatment; format: cell-based, human
Text: The micrographs of the first two rows were taken using 20× magnification, and those of the third row were taken using 10× magnification. The micrographs of the first row and the first two micrographs of second row were obtained using differential inference contrast (DIC) optic; the others were obtained without the DIC optic. […]

AR [3] = test: AR mRNA expression by RT-PCR in treated YHES cells; format: cell-based, human
Method: (§2) The YHES cells were harvested by trypsinization and seeded in 12-well at 5×10^4 cells/well plates and were pretreated with E2 and P as described above. […] Total RNA was isolated from treated cells using TRIzol reagent (Invitrogen, Carlsbad, Calif.) according to the manufacturer's instructions. The integrity of total RNA was inspected on an agarose gel. One microgram of total RNA from each sample was treated with DNase I to remove potential DNA contamination and then reverse-transcribed using Superscript II Reverse Transcriptase (Invitrogen). First-strand cDNA obtained from RNA samples was stored at −80° C. until use. To measure the mRNA expression levels of AR, PR-A, PR-B, Fas and FasL in each cell culture, semi-quantitative PCR analysis was performed.
(§3) Quantitative real-time RT-PCR was carried out on an ABI 7900 DNA sequencer (Applied Biosystems), and monitored by SYBR Green I (Qiagen, Valencia, Calif.). The PCR products of the expected size were visualized on a 0.8% agarose gel. The relative mRNA level of each gene was calculated using relative quantitation of gene expression (Applied Biosystems, Foster City, Calif.) with 18s as an endogenous control. The reproducibility of the quantitative measurements was evaluated by two independent cDNA syntheses. The means and standard deviations of the replicated measurements were calculated and presented as mean ±s.d.

PR-A = PR-A mRNA expression by RT-PCR in treated YHES cells; format: cell-based, human
Method: as §2, §3

PR-B = PR-B mRNA expression by RT-PCR in treated YHES cells; format: cell-based, human
Method: as §2, §3

Fas = Fas mRNA expression by RT-PCR in treated YHES cells; format: cell-based, human; conditions: TSA 10 μM, time not stated
Method: as §2, §3

FasL = FasL mRNA expression by RT-PCR in treated YHES cells; format: cell-based, human
Method: as §2, §3

AR [4] = test: Western blot of AR protein in treated YHES cells; format: cell-based, human; conditions: 16 hrs; TSA 10 μM, CDB 100 μM, NAC 10 mM
Method: Western blot analysis was performed to measure protein expression of β-actin, ERα, ERβ, and AR. […] Whole cell lysate was prepared as previously described (44) by using RIPA lysis buffer containing 50 mM Tris, pH 7.4, 150 mM NaCl, 12 mM EDTA, 1% Triton X-100, 0.5% sodium deoxycholate, and 0.1% SDS. To avoid degradation, a protease inhibitor cocktail III (Sigma) was added at 2%. Total protein was quantified using a BCA protein assay kit (Pierce, Rockford, Ill.). Ten microgram of total protein was separated by electrophoresis on 10% SDS-polyacrylamide gels. The protein was then transferred onto PVDF membranes (Milipore, Bedford, Mass.). […] The blot was then subsequently incubated with primary antibody rabbit anti-human ERα (Santa Cruz Biotechnology, CA), rabbit anti-human ERβ (Zymed Laboratories, South San Francisco, Calif.), rabbit anti-β-actin (Cell Signaling Technology, Beverly, Mass.), or rabbit ant-human AR (Santa Cruz Biotechnology, CA), respectively, in blocking solution (5% nonfat dry milk plus PBS) for 2 hr at room temperature. After washing with PBS plus 0.5% Tween-20, the membranes were then incubated with the secondary antibody goat anti-rabbit IgG (H+L)-HRP (Santa Cruz Biotechnology, CA) at 1:8000 dilution in blocking solution for 2 h at room temperature. […]

endometriotic cells = test: Sensitivity of endometriotic versus endometrial cells to TSA (unpublished observation); format: cell-based; conditions: Wu and Guo
COX-2 = conditions: cited from earlier work
endometrial cells = conditions: immortalized human endometrial stromal cells; cited from earlier work
[5] = test system: endometrial stromal cells; conditions: in vitro; cited from earlier work
[6] = 8 h, 18 h and 36 h, TSA 10 μM, CDB 100 μM, NAC 10 mM, semi-quantitative RT-PCR

CC(/C=C/C(=O)NO)=C\[C@@H](C)C(=O)c1ccc(N(C)C)cc1 [TSA, trichostatin A]
reduction of cell proliferation as compared with controls ([1]; 100 μM): ~90% | effect on cell proliferation ([1]; across 100, 10, 1, 0.1 μM): strong concentration-dependent antiproliferative effect | suppression of H2O2-induced cell proliferation [2]: 50% | cell morphology (YHES cells; 24 h after the treatment): signs of apparent apoptosis | recovery judged by morphology (YHES cells; four weeks after the treatment, TSA and RU486 at 100 μM): did not recover | AR mRNA expression level vs untreated control (AR [3]; [6]): increased | decrease of AR expression as compared with the control group (AR [3]; 36 h of treatment, real-time RT-PCR): about 50% | PR-A mRNA expression level vs untreated control (PR-A; [6]): increased | PR-A expression, comparison among treatment groups (PR-A; overall, real-time RT-PCR): greatest increase | PR-B mRNA expression level vs untreated control (PR-B; [6]): increased | PR-B expression, comparison among treatment groups (PR-B; overall, real-time RT-PCR): greatest increase | Fas expression vs control group (Fas): lower than the control group | increase in FasL expression as compared with the controls (FasL; 18 h after the treatment): ~25 fold | FasL expression (FasL; especially 18 and 36 h after the treatment): dramatic increase | AR protein level vs control group (AR [4]): highest expression | sensitivity of endometriotic cells relative to endometrial cells (endometriotic cells): over 100 fold | effect on IL-1β-induced COX-2 expression (COX-2): suppresses IL-1β-induced COX-2 expression | effect on cell cycle (endometrial cells): induce cell cycle arrest | effect on proliferation [5]: suppresses proliferation of endometrial stromal cells; also recorded: suppressing proliferation of endometrial and endometriotic cells in vitro
